The text below walks through data of patent publication US7473760B2, “Cyclic peptide compositions for treatment of sexual dysfunction” (Palatin Technologies, Inc., priority 1999, dated 2009).

Data set [1] has as its target MC1-R (B16-F1 mouse melanoma cells) (Mus musculus, UniProt Q01727). Description: Competitive inhibition binding assay with 125I-NDP-MSH, MC1-R. The note with it: 1 μM peptide, B16-F1 mouse melanoma membranes, read-out: Percent Inhibition At 1 μM concentration MC1-R.
Description: Each assay was conducted in triplicate.
(§1) B16-F1 mouse melanoma cells were used as the source of MC1 receptors; HEK 293 cells, transfected with human melanocortin receptor sequences, were used as the source of MC3, MC4 and MC5 receptors.
For a further data set, the target named is T1, hMC3-R (Homo sapiens, UniProt P41968).
T1 construct: expressed in transfected cells; host or cells: HEK 293 cells (membranes)
Kind of data set: Competitive inhibition binding assay with 125I-NDP-MSH, MC3-R. The settings on record: 1 μM peptide, HEK 293 human MC3, read-out: Percent Inhibition At 1 μM concentration MC3-R.

Data set [2] addresses T2, hMC4-R (Homo sapiens, UniProt P32245).
T2 construct: expressed in transfected cells; whole cells for cAMP
Description: Competitive inhibition binding assay with 125I-NDP-MSH, MC4-R. The note with it: 1 μM peptide, HEK 293 human MC4, read-out: Percent Inhibition At 1 μM concentration MC4-R.
Description: Each assay was conducted in triplicate.
as §1

The next data set has as its target T3, hMC5-R (Homo sapiens, UniProt P33032).
T3 construct: expressed in transfected cells; host or cells: HEK 293 cells (membranes)
Kind of data set: Competitive inhibition binding assay with 125I-NDP-MSH, MC5-R. The note with it: 1 μM peptide, HEK 293 human MC5, read-out: Percent Inhibition At 1 μM concentration MC5-R.

Data set [3] has as its target T2, hMC4-R. Description: Stimulation of intracellular cAMP production in transfected HEK-293 cells expressing hMC4-R. The data set is classed as cell-based. On the procedure:
Functional assays to determine agonist or antagonist status of a cyclic peptide of the invention may be conducted by any means known in the art. In one method, a cAMP assay is performed. Human MC4-R cells are grown to confluence in 96 well plates (plating approximately 250,000 cells per well). Identical sets of cells in triplicate are treated with 0.2 mM isobutylmethylxanthine (IBMX) and the chosen concentration of the peptide or alternatively the peptide in the presence of 20 nM NDP-MSH. Cells similarly treated but with only 20 nM NDP-MSH serve as positive controls in a volume of 200 μL. A buffer blank, as a negative control, is also included. Incubation is for one hour at 37° C. after which the cells are lysed by the addition of 50 μL of a cell lysis buffer. Total cAMP accumulated in 250 μL of this solution is quantitated using a commercially available low pH cAMP assay kit (Amersham BioSciences) by the procedure specified by the kit supplier. Any peptide showing cAMP accumulation in the same range as or higher than the positive control (buffer blank in the presence of α-MSH) is considered to be an agonist. A peptide showing accumulation in the same range as the negative control (buffer blank in the absence of α-MSH) is ineffective at the test concentration if the result is similar to the positive control where α-MSH is also present in the assay. A peptide showing accumulation in the same range as the negative control is considered to be an antagonist if there is inhibition in cAMP when α-MSH is present in the assay. Similar methods may be employed for MC3-R, using MC3-R cells.

The next data set deals with male Sprague-Dawley rats. Description: Induction of penile erections in male rats. The format is in vivo, rat. The note with it: 3 μg/kg intravenous; male rats observed 30 minutes. As for the experimental part:
Male Sprague-Dawley rats weighing 200-250 g were kept on a 12 hour on/off light cycle with food and water ad libitum. All behavioral studies were performed between 10 a.m. and 5 p.m. Groups of 6 rats were treated with peptides at a variety of doses, primarily 3 μg/kg, via intravenous administration. Immediately after administration, rats were placed into individual polystyrene cages (27 cm long, 16 cm wide, and 25 cm high) for behavioral observation. […] Using the above procedure, the mean number of penile erections for each rat on intravenous administration of 3 μg/kg was determined as shown on Table 2.

The test system of data set [4] is men with psychogenic erectile dysfunction. The settings on record: subcutaneous, 0.025 to 0.157 mg/kg, cited from earlier work.

T2 sequence (P32245 whole entry): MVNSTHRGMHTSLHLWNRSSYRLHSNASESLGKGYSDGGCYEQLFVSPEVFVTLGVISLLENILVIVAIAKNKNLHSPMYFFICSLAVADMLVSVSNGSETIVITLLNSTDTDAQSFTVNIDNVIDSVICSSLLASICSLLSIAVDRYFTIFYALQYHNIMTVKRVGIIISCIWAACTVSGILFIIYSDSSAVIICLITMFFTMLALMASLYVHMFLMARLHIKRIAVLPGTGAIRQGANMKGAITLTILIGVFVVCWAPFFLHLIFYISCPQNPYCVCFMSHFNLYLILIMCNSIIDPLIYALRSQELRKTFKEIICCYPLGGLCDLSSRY
T3 sequence (P33032 whole entry): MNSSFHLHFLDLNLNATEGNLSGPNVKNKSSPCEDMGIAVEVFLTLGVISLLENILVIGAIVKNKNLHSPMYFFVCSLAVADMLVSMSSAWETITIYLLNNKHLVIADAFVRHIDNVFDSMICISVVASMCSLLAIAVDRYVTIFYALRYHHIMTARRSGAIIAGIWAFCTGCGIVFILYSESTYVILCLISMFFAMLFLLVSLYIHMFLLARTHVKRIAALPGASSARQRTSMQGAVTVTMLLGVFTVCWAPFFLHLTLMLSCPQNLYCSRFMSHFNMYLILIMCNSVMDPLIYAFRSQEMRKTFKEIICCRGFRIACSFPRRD
MC1-R (B16-F1 mouse melanoma cells), sequence (Q01727 whole entry): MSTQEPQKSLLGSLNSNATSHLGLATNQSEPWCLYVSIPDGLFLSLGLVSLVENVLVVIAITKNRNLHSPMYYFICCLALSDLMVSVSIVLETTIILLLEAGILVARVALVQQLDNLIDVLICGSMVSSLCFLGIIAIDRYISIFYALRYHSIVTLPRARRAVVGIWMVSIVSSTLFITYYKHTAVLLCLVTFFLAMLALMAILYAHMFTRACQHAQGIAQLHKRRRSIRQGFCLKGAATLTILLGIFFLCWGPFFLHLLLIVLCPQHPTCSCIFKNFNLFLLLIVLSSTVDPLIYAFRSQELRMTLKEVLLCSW
T1 sequence (P41968 whole entry): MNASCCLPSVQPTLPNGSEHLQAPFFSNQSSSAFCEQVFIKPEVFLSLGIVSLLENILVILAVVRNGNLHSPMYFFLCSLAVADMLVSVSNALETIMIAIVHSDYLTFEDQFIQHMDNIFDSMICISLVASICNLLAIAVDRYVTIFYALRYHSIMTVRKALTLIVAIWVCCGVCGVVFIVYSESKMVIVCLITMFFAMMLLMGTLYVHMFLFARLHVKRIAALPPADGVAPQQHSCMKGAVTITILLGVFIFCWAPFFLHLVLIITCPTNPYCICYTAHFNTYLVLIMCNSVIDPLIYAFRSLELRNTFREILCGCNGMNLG
Description for hMC3-R: Each assay was conducted in triplicate.
as §1
Description for hMC5-R: Each assay was conducted in triplicate.
as §1

Take `CCCC[C@H](NC(C)=O)C(=O)N[C@H]1CC(=O)NCCCC[C@@H](C(=O)O)NC(=O)[C@H](Cc2c[nH]c3ccccc23)NC(=O)[C@H](CCCCN)NC(=O)[C@@H](Cc2ccccc2)NC(=O)[C@H](Cc2c[nH]cn2)NC1=O` [Ac-Nle-cyclo(-Asp-His-D-Phe-Lys-Trp-Lys)-OH]: the inhibition at 1 µM in data set [1] worked out at 86%; at hMC3-R it was 8%; on hMC4-R [2], 46%; on hMC5-R, 17%. Besides, at hMC4-R [3], the “Functional Activity at MC4-R” value is “Agonist”. Also, the “Mean PE/Rat (mean number of penile erections for each rat)” value (from here on “Mean PE/Rat”) in the data set on male Sprague-Dawley rats was 1.33. With “Ac-Nle-cyclo(-Asp-D-His-D-Phe-Arg-Trp-Lys)-OH”, the “Mean PE/Rat” value in the data set on male Sprague-Dawley rats is on record as 0.33.

Turning to “Ac-Nle-cyclo(-Asp-His-D-Phe(4-Cl)-Arg-Trp-Lys)-OH”, in the data set with male Sprague-Dawley rats, the “Mean PE/Rat” value is 0.33. Regarding “Ac-Nle-cyclo(-Asp-His-D-Phe-Arg-D-Trp-Lys)-OH”, the “Mean PE/Rat” value in the data set with male Sprague-Dawley rats is 0.83. For the molecule “Ac-Nle-cyclo(-Asp-His-D-Phe-Arg-Nal 1-Lys)-OH”, the “Mean PE/Rat” value with male Sprague-Dawley rats turned out to be 0.33. As to “Ac-Nle-cyclo(-Asp-His-Phe-Arg-Trp-Lys)-OH”, at hMC4-R [3], the “Functional Activity at MC4-R” value is reported as “Inactive”. For the molecule “Ac-Nle-cyclo(-Asp-Phe-D-Phe-Arg-Trp-Lys)-OH”, in the data set on male Sprague-Dawley rats, the “Mean PE/Rat” value stood at 0.33.

With “Ac-Nle-cyclo(-Asp-Trp-D-Phe-Arg-Trp-Lys)-OH”, in the data set with male Sprague-Dawley rats, the “Mean PE/Rat” value is 0.5. Same read-out and setting: for “Ac-Nle-cyclo(-Asp-Tyr-D-Phe-Arg-Trp-Lys)-OH” the value was 0.67; for “Ahx-cyclo(-Asp-His-D-Phe-Arg-Trp-Lys)-OH”, 0.33. Consider Melanotan-II, for which, in data set [4], the transient side effects result was “nausea, stretching and yawning, and decreased appetite”. Also, the “mean duration of tip rigidity greater than 80%” value in data set [4] (placebo 3.0 minutes, p=0.0045) is 38 min. Turning to “cyclo(-Succ-His-D-Phe-Arg-Trp-Lys)-OH (FRWK; cyclic succinyl, His, D-residue prefix; printed: Phe-Arg-Trp-Lys)”, the “Functional Activity at MC4-R” value with hMC4-R [3] is recorded as “Agonist”.
